pEC50, pIC50: −log10 of the molar value. Like-named read-outs stand apart in the source and are kept apart here.
Columns and labels:
Type in all cases: cell-based
[1] = test system: human multiple myeloma cell line NCI-H929; experiment: H929 Cell Viability Assay; settings: 48 hr, NCI-H929 cells, Celltiter-Glo, read-out: 48 hr H929 Viability Celltiter-Glo: Mean EC50
Method: Plates were incubated at 37° C., 5% CO2 for 48 hours. After 48 hours, Celltiter-Glo® (Promega) was added to each well and luciferase signal was quantified using Tecan Infinite M1000 Pro for cell viability determination.
For chemical structures that include one or more stereoisomers, but are illustrated without indicating stereochemistry, the assay data refers to a mixture of stereoisomers.

[2] = test system: HER3-ss+4aa/Gaussia Luciferase; experiment: Dox-Induced Her3-ss-Gluc Assay; settings: 293FRT/TO cells, read-out: 24 hr Dox Inducible Her3(ss + 4)Gluc 293FRT/TO: Mean IC50
Outline: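 Stable T-REx cell line carrying a doxycycline-regulated HER3-ss+4aa/Gaussia luciferase insert, plated the day before assay. Compound dilutions in DMSO/media with doxycycline added, then incubated at 37° C., 5% CO2. Stereoisomer mixtures tested where stereochemistry is not drawn.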

[3] = test system: PD1-ss+10aa/Gaussia Luciferase; experiment: Dox-Induced PD1-ss-Gluc Assay; settings: 293FRT/TO cells, read-out: 24 hr Dox Inducible PD1ssGluc 293FRT/TO: Mean IC50
Outline: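 Stable cell line carrying PD1-ss+10aa/Gaussia luciferase cDNA under T-REx (doxycycline-inducible) control, plated the day before assay. Compound dilutions in DMSO/media containing doxycycline added and incubated at 37° C, 5% CO2. Undefined stereocentres: data refer to stereoisomer mixtures.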

[4] = test system: TNFα-FL/Gaussia Luciferase; experiment: Dox Induced TNFα-FL-Gluc Assay; settings: 293FRT/TO cells, read-out: 24 hr Dox Inducible TNFaFLGluc 293FRT/TO: Mean IC50
Outline: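 A stable T-REx cell line carrying doxycycline-inducible TNFα-FL/Gaussia luciferase was plated the day before assay. Compound dilutions in DMSO/media containing doxycycline were then added and incubated at 37° C, 5% CO2.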

[5] = test system: IL-2-FL/Gaussia Luciferase; experiment: Dox Induced IL2-FL-Gluc Assay; settings: 293FRT/TO cells, read-out: 24 hr Dox Inducible IL2FLGIuc 293FRT/TO: Mean IC50
Outline: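 Stable T-REx cell line expressing doxycycline-inducible IL-2-FL/Gaussia luciferase cDNA, plated the day before assay. Compound dilutions in DMSO/media containing doxycycline added and incubated at 37° C., 5% CO2. Unspecified stereochemistry means data refer to a stereoisomer mixture.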

[6] = test system: human multiple myeloma cell line U266B1; experiment: U266 Cell Viability Assay; settings: U-266, 48 hr, U266B1 cells, Celltiter-Glo, read-out: 48 hr U266 Viability Celltiter-Glo: Mean EC50
Outline: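 U266B1 myeloma cells treated with compound dilutions in DMSO/media for 48 h at 37 °C, 5% CO2. Viability read by CellTiter-Glo luminescence. Stereochemically undefined structures were tested as stereoisomer mixtures.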

[7] = 24 hr doxycycline induction, Gaussia luciferase signal

Compound	pEC50 [1]	pIC50 [2, 7]	pIC50 [3, 7]	pIC50 [4, 7]	pIC50 [5, 7]	pEC50 [6]	pIC50 ([2]; 24 hr, doxycycline-induced)	pIC50 ([3]; 24 hr, doxycycline-induced)	pIC50 ([4]; 24 hr, doxycycline-induced)	pIC50 ([5]; 24 hr, doxycycline-induced)
O=C(Nc1nc(/C=C/c2ccc([N+](=O)[O-])cc2)cs1)c1cccn1Cc1ccncc1 [Compound A227]	5.05	6.42	7.28	5.72	6.20	< 4.67				
CO[C@@H]1CCN(c2ccccc2)C1c1csc(NC(=O)c2cccn2Cc2ccncc2)n1 (stereo partly drawn) [Compound A345]	6.14					< 4.60	7.66	7.96	7.00	7.64
CO[C@H]1CCN(c2ccccc2)[C@H]1c1csc(NC(=O)c2cccn2Cc2ccncc2)n1 [Compound A334]	5.19					5.04	6.86	7.10	6.11	6.96
CC(=O)Nc1ccc(Cn2cccc2C(=O)Nc2nc(C(C)(C)OC(C)C)cs2)cc1 [Compound A114, 1-(4-acetamidobenzyl)-N-(4-(2-isopropoxypropan-2-yl)thiazol-2-yl)-1H-pyrrole-2-carboxamide]	< 4.60	< 4.60	< 4.60	< 4.60	< 4.60	< 4.60				
O=C(Nc1nc(/C=C/c2cccnc2)cs1)c1cccn1Cc1ccncc1 [Compound A165, N-(4-(2-(pyridin-3-yl)vinyl)thiazol-2-yl)-1-(pyridin-4-ylmethyl)-1H-pyrrole-2-carboxamide]	4.96	5.01	5.78	< 4.60	4.97	< 4.60				
CN(C)c1ccc(/C=C/c2csc(NC(=O)c3cccn3Cc3ccncc3)n2)cc1 [Compound A229]	4.60	6.25	7.18	5.34	5.98	< 4.60				
CC(C)OC(C)(C)c1csc(NC(=O)c2cccn2Cc2c(F)cncc2F)n1 [Compound A256, 1-((3,5-difluoropyridin-4-yl)methyl)-N-(4-(2-isopropoxypropan-2-yl)thiazol-2-yl)-1H-pyrrole-2-carboxamide]	< 4.60	5.39	5.67	< 4.60	5.54	< 4.60				
CCc1nc(NC(=O)c2cccn2Cc2ccccc2Cl)sc1C [Compound B7, 1-(2-chlorobenzyl)-N-(4-ethyl-5-methylthiazol-2-yl)-1H-pyrrole-2-carboxamide]	< 4.60					< 4.60	4.70	5.04	< 4.60	4.61
COc1ccc(/C=C/c2csc(NC(=O)c3cccn3Cc3ccncc3)n2)cc1F [Compound A240, N-(4-(3-fluoro-4-methoxystyryl)thiazol-2-yl)-1-(pyridin-4-ylmethyl)-1H-pyrrole-2-carboxamide]	4.93	6.57	7.26	5.11	6.35	< 4.60				
O=C(Nc1nc(C2CCN(Cc3ccccc3)CC2)cs1)c1cccn1Cc1ccncc1 [Compound A302]	< 4.60					< 4.60	5.21	5.70	< 4.60	4.98
CC(C)OC(C)(C)c1csc(NC(=O)c2cc(CO)cn2Cc2ccncc2)n1 [Compound A113, 4-(hydroxymethyl)-N-(4-(2-isopropoxypropan-2-yl)thiazol-2-yl)-1-(pyridin-4-ylmethyl)-1H-pyrrole-2-carboxamide]	< 4.60	< 4.60	< 4.60	< 4.60	< 4.60	< 4.60				
